“Also recorded” adds a separate entry of the source. Read-outs that look alike come from different tables or passages of the source.
Experiments:
[1] = design: species or system beagle dogs; settings: male, beagle, dog, in vivo
Procedure: Two groups of three male beagle dogs weighing 9.0-10.7 kg and aged 8-30 months were fasted overnight before being administered the test article, MGBG, as either a single bolus intravenous dose of 1 mg/kg (Group 1) or as a single oral gavage dose of 10 mg/kg (Group 2). Dose formulation analysis verified administered dose solutions as within 17% of targeted concentrations of 1 and 10 mg/kg for Groups 1 and 2, respectively.
Blood samples (approximately 2.0 mL) were collected for plasma MGBG concentration measurement from all intravenously dosed animals prior to dosing and at approximately T=0.083 (5 min), 0.25 (15 min), 0.5 (30 min), 1, 2, 4, 8, and 24 hours after dosing. A similar procedure was used with orally dosed animals was used, except that collection took place at T=1, 2, 4, 8, 12, 24, and 36 hours after dosing. The samples were centrifuged under refrigerated conditions following completion of sample collection at each interval. The resulting plasma was separated and stored frozen at approximately −70° C. until analysis.

[2] = test system: MOG-induced experimental autoimmune encephalomyelitis (EAE); experiment: First MOG EAE protocol (murine multiple sclerosis model); assay type: in vivo, C57BL/6 mice
Text: (§1) An experimental murine model of multiple sclerosis employing a myelin oligodendrocyte glycoprotein (MOG) peptide to induce experimental autoimmune encephalomyelitis (EAE) was employed to determine the efficacy of MGBG in preventing and treating that disease. Because of its many similarities to MS, EAE is commonly used to study pathogenesis of autoimmunity, CNS inflammation, demyelination, cell trafficking, and tolerance induction. EAE is characterized by paralysis (in some models the paralysis is remitting-relapsing), CNS inflammation and demyelination. EAE is mediated primarily by dendritic cells, myelin-specific T cells (e.g. Th1 and Th17), and M1 macrophages. B cells may also play a role in some models of EAE. Body weight also tracks disease progression. EAE is induced in C57BL/6 mice by immunization with MOG35-55 or MOG1-125 in CFA emulsion followed by administration of pertussis toxin (PTX) in PBS. The emulsion provides antigen which initiates expansion and differentiation of MOG-specific autoimmune T cells. PTX enhances EAE development by providing additional adjuvant and facilitating entrance of autoimmune T cells into the CNS.
(§2) Chronic EAE develops in C57BL/6 mice after immunization with an emulsion of MOG35-55/CFA or MOG1-125/CFA followed by injection of pertussis toxin. This model is used to test the potential of compounds to prevent or mitigate EAE disease. It can be run with the compound dosed from the time of immunization (prophylactic treatment), or with the aim of reversing the course of disease and facilitating recovery by dosing the compound from the time of EAE onset (therapeutic treatment). The model uses female C57BL/6 mice of age 10 to 14 weeks at the start of the study. Typically, EAE develops 8-18 days after immunization. EAE development is usually followed for 4 weeks (28 days) after immunization.
In prophylactic studies, treatment begins before disease onset, at the time of immunization and group assignment. Mice are assigned to treatment groups in a balanced manner to achieve groups with similar distributions of body weights. Prophylactic studies assess if treatment will affect the course of disease both before and after the first clinical signs of EAE. To compensate for the stress of treatment in prophylactic treatment studies and achieve the target disease severity, EAE may be induced with a higher dose of pertussis toxin than used in therapeutic studies. The dose of pertussis toxin is based on expected stress due to dosing (route, frequency, and formulation of vehicle).
(§3) Clinically, EAE progression is scored on a scale of 0 to 5, wherein each score represents the following clinical observations:
(§4) Inflammatory foci of approximately 20 cells were counted in each H&E stained section. When inflammatory infiltrates consisted of more than 20 cells, an estimate was made of how many foci of 20 cells were present.
(§5) The demyelination score represents an estimate of demyelinated area for each section as follows:
Unless otherwise noted, statistical analysis was performed as follows: disease incidence compared using chi-square test; mean day of EAE onset, change in body weight, and number of apoptotic cells compared using 2-tailed Student's t-test; median day of EAE onset compared using Wilcoxon's survival test; mean maximum score (MMS), end score, and demyelination scores (LFB and H&E) compared using Wilcoxon's non-parametric test.
Ten week old female C57BL/6 mice weighing 18-23 g (Taconic Farms) were divided into four groups: mock immunized (n=3) and three MOG-immunized groups receiving MGBG at 30 mpk BID (as the di-HCl monohydrate with a correction factor of 1.49), fingolimod (FTY720) at 3 mpk QD with a second mock vehicle dose, or 0.9% saline vehicle BID (n=12 each). […]

[3] = test system: MOG-induced experimental autoimmune encephalomyelitis (EAE); experiment: Third MOG EAE protocol (MGBG, fingolimod and combination); assay type: in vivo, C57BL/6 mice; settings: MGBG 30 mpk twice-daily, fingolimod 0.1 mpk once-daily, or both
Text: as §1, §2, §3, §4, §5
Ten week old female C57BL/6 mice weighing 18-23 g (Taconic Farms) were divided into four groups: mock immunized (n=3) and three MOG-immunized groups receiving MGBG at 30 mpk BID (as the di-HCl monohydrate with a correction factor of 1.49), […] dose, or 0.9% saline vehicle BID (n=12 each). […]

Question: With CC(/C=N/NC(=N)N)=N\NC(=N)N [MGBG, 1,1′ [methylethanediylidene]dinitrilodiguanidine] as the molecule, how does the Clobs ([1]; iv, 1 mg/kg) read?
Answer: Its Clobs is 13.7 mL/min/kg.

Question: What about the VSSobs ([1]; iv, 1 mg/kg) of the same molecule?
Answer: Its VSSobs is 14.6 L/kg.

Question: What about the Clobs ([1]; po, 10 mg/kg) of the same molecule?
Answer: The Clobs was 8.29 mL/min/kg.

Question: What about the Vd ([1]; po, 10 mg/kg) of the same molecule?
Answer: Its Vd is 14.6 L/kg.

Question: And the “mean clinical score (scale 0 to 5)” value ([2]; first 28-day study, MGBG 30 mpk BID, fingolimod 3 mpk QD, throughout/duration of experiment)?
Answer: Its value is “below 1”.

Question: And the “body weight, mean percent of baseline (study start)” value ([2]; first study, day 11)?
Answer: Its value is about 115%.

Question: And the “body weight, mean percent of baseline (study start)” value ([2]; first study, day 24)?
Answer: The value was “about 108%”.

Question: And the “spinal cord histopathology (neuroinflammation, demyelination, apoptosis)” value ([2]; first study, day 28)?
Answer: The value was “reduces histopathological signs of MS”.

Question: What about the “day first clinical signs became evident” value ([2]; first study, MGBG 30 mpk BID (vehicle day 10)) of the same molecule?
Answer: The value was 15 days.

Question: What about the “clinical scores / development of EAE” value ([3]; third 28-day study) of the same molecule?
Answer: The value was “suppressed EAE comparably to 0.1 mpk fingolimod; also recorded: equivalently efficacious in preventing EAE development”.

Question: What about the “cellular apoptosis in spinal cord” value ([3]; third study) of the same molecule?
Answer: Its value is “equivalently efficacious in reducing apoptosis”.

Question: What about the “number of inflammatory foci in spinal cord” value ([3]; third study) of the same molecule?
Answer: Its value is “equivalently efficacious in reducing the number of inflammatory foci”.

Question: And the spinal cord demyelination ([3]; third study)?
Answer: The spinal cord demyelination was “equivalently efficacious in reducing demyelination”.

Reference: patent US10085955B2, “Methods and compositions for treatment of demyelinating diseases” (Pathologica LLC, priority 2013, dated 2018)
